Results taken from patent publication US20240277798A1, “CYCLOSPORINE COMPOSITIONS AND METHODS OF USE” (Bacainn Biotherapeutics, Ltd., priority 2021, published 2024).
Several values for one entry are separate records, joined by “and”; a condition that tells them apart may be missing. Identical values can stand only once.

Columns and labels:
[1] = Rat PK, plasma concentrations after oral dosing; format: in vivo, Sprague-Dawley rats
SGF FeSSIF stability = format: in vitro ADME; details: 10 μM, 37° C., 6 hours, predicted
Experimental: SGF FeSSIF Stability Procedure. BT090 (10 μM) was incubated in duplicate at 37° C. for a total of 6 hours in simulated gastric fluid (SGF) (Ricca, Arlington, TX) and Fed State Simulated Intestinal Fluid (FeSSIF) (Biorelevant, London, UK). The reactions were initiated by spiking the test articles (1 mM water stock solutions) in their respective buffers. At selected time points (0, 0.5, 1, 2, 4, and 6 hours), a 50 μL aliquot was taken from the incubation mixtures and frozen at −80° C. At the end of the incubation period, 200 μL of 50:50 acetonitrile:water containing the internal standards (IS) were added to every tube and vortexed thoroughly. The 0 hour samples were prepared in pre-quenched SGF or FeSSIF. All quenched samples were then submitted to bioanalysis for LC-MS/MS quantification.
Bioanalysis. BT090 samples were analyzed by LC-MS/MS using a Thermo Accela UPLC and a Thermo Q-Exactive mass spectrometer. The [M+H]+ adducts of the compounds and internal standards were monitored using positive mode electrospray ionization in exact mass mode. […]
SGF FeSSIF Stability Procedure. […] All quenched samples are then submitted to bioanalysis for LC-MS/MS quantification.
Bioanalysis. […] The [M+H]+ adducts of the compounds and internal standards are monitored using positive mode electrospray ionization in exact mass mode. […]

FPR1 = target: T1, FPR1 (Homo sapiens, UniProt P21462); experiment: Inhibition of FPR1 measured as inhibition of fMLP-induced neutrophil transmigration across T84 monolayer; format: cell-based; details: FIG. 3B
T1 construct: endogenous in cells; host or cells: freshly isolated human neutrophils (PMNs), migrating across a T84 epithelial monolayer
T1 sequence (P21462 1-350): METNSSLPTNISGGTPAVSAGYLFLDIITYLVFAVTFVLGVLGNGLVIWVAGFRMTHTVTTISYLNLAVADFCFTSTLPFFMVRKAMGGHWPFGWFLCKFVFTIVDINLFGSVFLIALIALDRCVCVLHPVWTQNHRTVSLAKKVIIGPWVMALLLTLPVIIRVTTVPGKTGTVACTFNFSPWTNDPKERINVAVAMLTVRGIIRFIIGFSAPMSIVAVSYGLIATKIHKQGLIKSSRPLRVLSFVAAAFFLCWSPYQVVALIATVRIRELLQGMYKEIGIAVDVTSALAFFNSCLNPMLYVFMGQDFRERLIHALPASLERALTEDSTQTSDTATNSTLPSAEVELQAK
Experimental: T84 colorectal cancer cells were grown to confluence on the bottom side of 12 well polycarbonate membrane inserts of a 24 well Transwell® plate. The confluent growth of these epithelial cells results in physiologically-relevant apical (luminal) and basolateral surfaces in the transwells. Freshly isolated and prepared human neutrophils were pretreated in compound (BT051 or cyclosporine A) for 1 hour on ice.
BT051 or cyclosporine A was added to the apical surface of the monolayer. The potent neutrophil chemoattractant, N-formyl-methionyl-leucyl-phenylalanine (fMLP) (100 nM), which activates neutrophil migration via its interaction with the FPR1 protein on neutrophils, was also added to the apical side of the monolayer. The compound-treated neutrophils were then added to the basolateral side and allowed to transmigrate through the monolayer for 2 hours. The number of neutrophils migrated to the apical chamber (due to the fMLP gradient) was then assayed by determination of myeloperoxidase activity (a neutrophil biomarker). Inhibition of transmigration is indicated by lower MPO activity in the apical chamber.
T84 colorectal cancer cells are grown to confluence on the bottom side of 12 well polycarbonate membrane inserts of a 24 well Transwell® plate. The confluent growth of these epithelial cells results in physiologically-relevant apical (luminal) and basolateral surfaces in the transwells. […]

[2] = BT070 10 mg/kg orally, rat, individual animals, 10 mg/kg
[3] = BT070 10 mg/kg orally, rat, mean

In the case of `CC[C@@H]1NC(=O)[C@H]([C@H](O)[C@H](C)CCCCCC(=O)O)N(C)C(=O)[C@H](C(C)C)N(C)C(=O)[C@H](CC(C)C)N(C)C(=O)[C@H](CC(C)C)N(C)C(=O)[C@@H](C)NC(=O)[C@H](C)NC(=O)[C@H](CC(C)C)N(C)C(=O)[C@H](C(C)C)NC(=O)[C@H](CC(C)C)N(C)C(=O)CN(C)C1=O` [BT070], the plasma concentration ([1]; BT070 10 mg/kg orally, rat, 0.5 h, individual animals, 10 mg/kg) is reported as 7472.8 ng/mL and 746.7 ng/mL and 2546.3 ng/mL, the Mean plasma concentration ([1]; BT070 10 mg/kg orally, rat, 0.5 h, mean) is reported as 3588.6 ng/mL and the plasma concentration ([1]; BT070 10 mg/kg orally, rat, 1 h, individual animals, 10 mg/kg) is reported as 4382.8 ng/mL and 725.2 ng/mL and 1796.5 ng/mL. The Mean plasma concentration ([1]; BT070 10 mg/kg orally, rat, 1 h, mean) was 2301.5 ng/mL, the plasma concentration ([1]; BT070 10 mg/kg orally, rat, 2 h, individual animals, 10 mg/kg) was 2238.3 ng/mL and 1114.4 ng/mL and 1215.5 ng/mL and the Mean plasma concentration ([1]; BT070 10 mg/kg orally, rat, 2 h, mean) was 1522.8 ng/mL. For the same compound, the plasma concentration ([1]; BT070 10 mg/kg orally, rat, 4 h, individual animals, 10 mg/kg) was 1178.8 ng/mL and 861.5 ng/mL and 448.5 ng/mL, the Mean plasma concentration ([1]; BT070 10 mg/kg orally, rat, 4 h, mean) was 829.6 ng/mL and the plasma concentration ([1]; BT070 10 mg/kg orally, rat, 6 h, individual animals, 10 mg/kg) was 641.5 ng/mL and 543.6 ng/mL and 280.0 ng/mL. For the same compound, the Mean plasma concentration ([1]; BT070 10 mg/kg orally, rat, 6 h, mean) was 488.3 ng/mL, the plasma concentration ([1]; BT070 10 mg/kg orally, rat, 8 h, individual animals, 10 mg/kg) was 312.1 ng/mL and 451.6 ng/mL and 118.1 ng/mL and the Mean plasma concentration ([1]; BT070 10 mg/kg orally, rat, 8 h, mean) was 293.9 ng/mL. The plasma concentration ([1]; BT070 10 mg/kg orally, rat, 24 h, individual animals, 10 mg/kg) was 12.0 ng/mL and 268.9 ng/mL and 22.8 ng/mL, the Mean plasma concentration ([1]; BT070 10 mg/kg orally, rat, 24 h, mean) was 101.2 ng/mL and the “% Extrapolation” value [1, 2] was 0.3% and 38.42% and 2.46%. For the same compound, the AUCinf [1, 2] was 17616.8 ng/mL*h and 19158.4* ng/mL*h and 7432.0 ng/mL*h, the AUClast [1, 2] was 17560.9 ng·h/mL and 11798.3 ng·h/mL and 7249.5 ng·h/mL and the CL_F [1, 2] was 9.5 mL/min/kg and 8.7* mL/min/kg and 22.43 mL/min/kg. The Cmax [1, 2] was 7472.8 ng/mL and 1114.4 ng/mL and 2546.3 ng/mL, the tmax [1, 2] was 0.50 h (2×) and 2.00 h and the “% Extrapolation, Mean” value [1, 3] was 13.7%. The “AUCinf, Mean” value [1, 3] was 14735.7 ng·h/mL, the “AUClast, Mean” value [1, 3] was 12202.9 ng·h/mL and the “CL_F, Mean” value [1, 3] was 13.5 mL/min/kg. The “Cmax, Mean” value [1, 3] was 3711.2 ng/mL, the “M.R.T. po, Mean” value [1, 3] was 10.8 h and the “tmax, Mean” value [1, 3] was 1.0 h. The plasma concentration ([1]; BT070 as breakdown product after BT051 10 mg/kg orally, rat, 0.5 h, individual animals) was 3.3 ng/mL and NQ (Not quantifiable. No peak or below limit of quantification (LOQ = 2.5 ng/mL)) (4×), the Mean plasma concentration ([1]; BT070 as breakdown product after BT051 10 mg/kg orally, rat, 0.5 h, mean) was 3.3 ng/mL and the plasma concentration ([1]; BT070 as breakdown product after BT051 10 mg/kg orally, rat, 1 h, individual animals) was “NQ (Not quantifiable. No peak or below limit of quantification (LOQ = 2.5 ng/mL))”. For the same compound, the plasma concentration ([1]; BT070 as breakdown product after BT051 10 mg/kg orally, rat, 2 h, individual animals) was “NQ (Not quantifiable. No peak or below limit of quantification (LOQ = 2.5 ng/mL))”, the plasma concentration ([1]; BT070 as breakdown product after BT051 10 mg/kg orally, rat, 4 h, individual animals) was “NQ (Not quantifiable. No peak or below limit of quantification (LOQ = 2.5 ng/mL))” and the plasma concentration ([1]; BT070 as breakdown product after BT051 10 mg/kg orally, rat, 6 h, individual animals) was “NQ (Not quantifiable. No peak or below limit of quantification (LOQ = 2.5 ng/mL))”. The plasma concentration ([1]; BT070 as breakdown product after BT051 10 mg/kg orally, rat, 8 h, individual animals) was “NQ (Not quantifiable. No peak or below limit of quantification (LOQ = 2.5 ng/mL))”, the plasma concentration ([1]; BT070 as breakdown product after BT051 10 mg/kg orally, rat, 24 h, individual animals) was “NQ (Not quantifiable. No peak or below limit of quantification (LOQ = 2.5 ng/mL))” and the Cmax ([1]; BT070 as breakdown product after BT051 10 mg/kg orally, rat, individual animals) was 3.3 ng/mL. For the same compound, the “Cmax, Mean” value ([1]; BT070 as breakdown product after BT051 10 mg/kg orally, rat, mean) was 3.3 ng/mL, the “oral bioavailability of the breakdown product” value ([1]; BT070 following oral administration of BT051 in rats at 10 mg/kg, result in words) was “not orally bioavailable” and the detectability in plasma ([1]; rats, 10 mg/kg orally, result in words) was “present in the plasma in all subject rats from 15 minutes to 24 hours”. For the same compound, the “stability in simulated gastric fluid (SGF)” value (SGF FeSSIF stability) was “stable”, the “stability in simulated intestinal fluid (FeSSIF)” value (SGF FeSSIF stability) was “stable” and the “inhibition of PMN transmigration/activation” value (FPR1; concentration not given) was “approximately 50%”. The “fMLP-mediated PMN transmigration/activation” value (FPR1; result in words) was “inhibit”.
